Experimental data reported in patent publication US20190167771A1, “CONTROL ANGIOGENESIS BY REGULATING PHOSPHORYLATION OF SERYL-tRNA SYNTHETASE (SerRS)” (The Scripps Research Institute, priority 2016, published 2019).

Columns and labels:
3B11 endothelial cells = test: Matrigel plug angiogenesis assay with stably transfected 3B11 cells; assay type: in vivo; settings: 3B11 cells stably transfected with mouse SerRS gene, C3H/HeJ mice, 14 days
Experimental: In FIG. 4A, mouse 3B11 endothelial cells were stably transfected with mouse wild type SerRS or mutant SerRS and the expression of SerRS were examined by immunoblot with anti-SerRS antibody and quantified by the density of the bands. In FIGS. 4B-C, Matrigel plug angiogenesis assay was performed with stably transfected 3B11 cells in C3H/HeJ mice. Matrigel plugs (dash lines enclosed regions) excised 14 days after implantation were analyzed by immunohistochemistry for CD31 (FIG. 4B) and microvessel density was quantified (FIG. 4C) (n=10-15).
A total of 10^6 of stably transfected 3B11 cells were resuspended in 100 μl of DMEM medium supplemented with 10% FBS and then mixed with 200 μl of ice-cold matrigel (BD Biosciences, San Jose, Calif., USA) liquid on ice. The 300 μl of cell and matrigel mixture was injected subcutaneously into a flank of C3H/HeJ mice (two injection sites per mouse and 5-6 mice in each group) (Jackson Laboratory). After inoculation for 14 days, the matrigel plugs were excised and frozen in Tissue-Tek® OCT compound for cryostat sectioning. All the mouse experiments were conducted according to the guidelines established by the Institutional Animal Care and Use Committee (IACUC) at The Scripps Research Institute, IACUC approval protocol number 13-0003.
5-μm sections from freshly frozen tumor xenograft and matrigel plugs were treated with acetone and 3% H2O2 to block endogenous peroxidase. After 3-5 times wash and goat serum block, the sections were incubated with an anti-CD31 antibody (1:3000; Cell Signaling Technology) overnight at 4° C. The blood vessels were counted in 5-10 random viable fields (120×) in tumor xenograft samples and microvessel density in matrigel plugs was quantified by measuring the CD31 staining density using Image J software. To detect the hypoxia, we incubated the slides with anti-HIF1α antibody (1:100; Novus Biologicals).
A matrigel plug angiogenesis assay was used. […] At the same time, the microvasculature in the plug was evaluated by CD31 immuno-staining.

zebrafish embryos = test: Intersegmental vessel (ISV) branching in zebrafish embryos; assay type: in vivo; settings: human SerRS mRNA co-injected with SerRS-MO, 3 dpf
Experimental: In FIG. 2A, wild type SerRS (SerRS^WT), its mutants with double substitutions of serine 101 and 241 with alanine or aspartic acid residues (SerRS^S101A/S241A and SerRS^S101D/S241D), or empty vector were transfected into HEK293 cells. The expression levels of SerRS proteins was measured by immunoblot (bottom) and VEGFA expression was determined by qRT-PCR (means±SEM from three independent experiments; ***P<0.0001). In FIGS. 2B-D, the roles of SerRS^S101A/S241A and SerRS^S101D/S241D in regulating vascular development in vivo in zebrafish were examined by co-injection of SerRS^S101A/S241A and SerRS^S101D/S241D mRNAs into one-cell-stage embryos whose endogenous SerRS was knocked down by injection of antisense morpholino (SerRS-MO) that led to abnormal high expression of Vegfa and hypervascularization (shown by short bold arrows in FIG. 2C). At 3 day post fertilization (dpf), embryos were harvested and Vegfa expression levels were measured by qRT-PCR (means±SEM, n=125-211; *P<0.01, **P<0.001) (B). The development of intersegmental vessel (ISV) at 3 dpf was examined (C) and the statistics of ISV abnormal branching rescued by SerRS^WT or mutant SerRS mRNA injections was analyzed (D; χ^2-test,* P>0.05 vs SerRS^WT, **P>0.1 vs SerRS-MO, ***P<1×10^−28 vs control-MO). In FIG. 2E, the binding affinities of SerRS^WT or SerRS^S101D/S241D with ^32P labeled DNA fragments corresponding to SerRS binding site on human VEGFA promoter were examined by EMSA. In FIG. 2F, the binding of SerRS^WT, SerRS^S101A/S241A, or SerRS^S101D/S241D on VEGFA promoter in HEK293 cells was examined by chromatin immunoprecipitation (ChIP) and qPCR (means±SEM from two independent experiments; ***P<0.0001). In FIG. 2G, the binding of endogenous SerRS on VEGFA promoter during hypoxia course was monitored by ChIP (means±SEM from three independent experiments; *P<0.05, **P<0.005 vs normal).
Transgenic Tg (Fli1a: EGFP) fish were maintained as we described before (Ref). The fish embryos were kept at 28.5° C. before and after microinjection. The antisense morpholino (MOs) targeting SerRS was injected into the yolk of 1-cell stage embryos at the dosage of 4˜5 ng per embryo. The sequence of SerRS-MO is (Ref). The SerRS-MO (5′ AGGAGAATGTGAACAAACCTGACAC 3′ (SEQ ID NO: 34)) and standard control MO (5′ CCTCTTACCTCAGTTACAATTTATA 3′ (SEQ ID NO: 35)) were purchased from Gene Tools, LLC (Philomath, Oreg. USA). After injection, embryos were incubated in E3 embryo medium supplemented with 0.003% 1-phenyl-2-thiourea (PTU) at 28.5° C. to prevent pigment formation. […] The rescue effects of different SerRS mutants on ISV development were analyzed with χ^2 test. […]

Substance	microvessel formation in the matrigel plug (CD31) (3B11 endothelial cells)	zebrafish embryos with abnormal hyper-ISV branching phenotype (zebrafish embryos)
SerRS^WT: wildtype human seryl-tRNA synthetase protein, SEQ ID NO: 1 (mouse wild type used in the 3B11 matrigel assay)	did not suppress microvascular formation	17.9%
SerRS^S101D/S241D: SerRS with double substitutions of S101 and S241 with aspartic acid, mimics the phosphorylated SerRS	did not suppress microvascular formation	62.7%
SerRS^S101A/S241A: phosphorylation-deficient human SerRS double mutant, serine 101 and 241 to alanine, SEQ ID NO: 4 (mouse version in matrigel assay)	strongly suppressed the microvessel formation	26.4%
